Patent publication US20230085307A1, “PYRIDAZINONE COMPOUND AND HERBICIDE” (NISSAN CHEMICAL CORPORATION, priority 2019, published 2023)

What was measured:
green foxtail = assay: Test Example 4: herbicidal effect by soil treatment (Table 19, symbol G); type: in vivo, green foxtail (Setaria viridis)
How it was run: (§1)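 Three weeks of greenhouse growth at 25° C. to 30° C. followed a uniform surface spray of water-diluted emulsion at a predetermined herbicide amount. Seeds had been sown beforehand under about 1.5 cm of sterilized diluvial soil. Grading followed criteria set out in an earlier test.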

lambsquarters [1] = assay: Test Example 4: herbicidal effect by soil treatment (Table 19, symbol O); type: in vivo, lambsquarters (Chenopodium album)
How it was run: as §1

chickweed [2] = assay: Test Example 4: herbicidal effect by soil treatment (Table 19, symbol P); type: in vivo, common chickweed (Stellaria media)
How it was run: as §1

velvetleaf [3] = assay: Test Example 4: herbicidal effect by soil treatment (Table 19, symbol M); type: in vivo, velvetleaf (Abutilon theophrasti)
How it was run: as §1

windgrass = assay: Test Example 5: herbicidal effect by foliage application, plastic box (Table 20, symbol L); type: in vivo, windgrass (Apera spica-venti); settings: foliage application; for effect on windgrass (L): 3 weeks after application
How it was run: (§2)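 Plants sown in sterilized diluvial soil and grown 14 days in a greenhouse at 25° C to 30° C, then sprayed on the foliage with the compound's emulsion diluted in water to a predetermined herbicide amount. Injury to weeds and crops scored three weeks after application on a visual rating scale.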

Italian ryegrass = assay: Test Example 5: herbicidal effect by foliage application, plastic box (Table 20, symbol K); type: in vivo, Italian ryegrass (Lolium multiflorum); settings: foliage application; for effect on Italian ryegrass (K): 3 weeks after application
How it was run: as §2

redroot pigweed = assay: Test Example 5: herbicidal effect by foliage application, plastic box (Table 20, symbol N); type: in vivo, redroot pigweed (Amaranthus retroflexus); settings: foliage application
How it was run: as §2

southern crabgrass = assay: Test Example 4: herbicidal effect by soil treatment (Table 19, symbol F); type: in vivo, southern crabgrass (Digitaria ciliaris)
How it was run: as §1

velvetleaf [4] = assay: Test Example 5: herbicidal effect by foliage application, plastic box (Table 20, symbol M); type: in vivo, velvetleaf (Abutilon theophrasti); settings: foliage application; for effect on velvetleaf (M): 3 weeks after application
How it was run: as §2

chickweed [5] = assay: Test Example 5: herbicidal effect by foliage application, plastic box (Table 20, symbol P); type: in vivo, common chickweed (Stellaria media); settings: foliage application
How it was run: as §2

wild oat = assay: Test Example 4: herbicidal effect by soil treatment (Table 19, symbol I); type: in vivo, wild oat (Avena fatua)
How it was run: as §1

barnyard grass = assay: Test Example 4: herbicidal effect by soil treatment (Table 19, symbol H); type: in vivo, barnyard grass (Echinochloa crus-galli)
How it was run: as §1

blackgrass = assay: Test Example 4: herbicidal effect by soil treatment (Table 19, symbol J); type: in vivo, blackgrass (Alopecurus myosuroides)
How it was run: as §1

Japanese bulrush = assay: Test Example 2: herbicidal activity, application during weed generation under submerged conditions (Table 17, symbol B); type: in vivo, Japanese bulrush (Schoenoplectus juncoides); settings: AAH 320 g/ha; application during weed generation, submerged conditions
How it was run: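 Wagner pot, alluvial soil, 4 cm flood; mixed sowing of all species; greenhouse 25° C.–30° C. Emulsifiable formulation, water-diluted to predetermined dose, applied to paddy water at 1–2 leaf stage. Effect rated at 3 wk using the earlier test's scoring criteria.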

lambsquarters [6] = assay: Test Example 5: herbicidal effect by foliage application, plastic box (Table 20, symbol O); type: in vivo, lambsquarters (Chenopodium album); settings: foliage application; for effect on lambsquarters (O): 3 weeks after application
How it was run: as §2

persian speedwell = assay: Test Example 4: herbicidal effect by soil treatment (Table 19, symbol R); type: in vivo, Persian speedwell (Veronica persica)
How it was run: as §1

oval-leafed pondweed = assay: Test Example 1: herbicidal activity, application before weed generation under submerged conditions (Table 16, symbol C); type: in vivo, oval-leafed pondweed (Monochoria vaginalis); settings: 320 g/ha applied herbicide
How it was run: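 Alluvial soil was flooded to 4 cm depth, weed seeds were sown mixed and 2.5-leaf rice seedlings were transplanted. On sowing day, the compound's emulsion, diluted in water to a set dose, was applied to the water surface. Plants grew at 25–30 °C and were scored 0–5 after three weeks.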

[7] = amount of applied herbicide 320 g/ha
[8] = 320 g/ha, three weeks after application
[9] = AAH 320 g/ha, three weeks after application
[10] = 320 g/ha, evaluated three weeks after application

SMILES | herbicidal effect rating, G: green foxtail (green foxtail; [7]) | herbicidal effect rating, O: lambsquarters (lambsquarters [1]; [7]) | herbicidal effect rating, P: chickweed (chickweed [2]; [7]) | herbicidal effect rating, F: southern crabgrass (southern crabgrass; [7]) | herbicidal effect rating, I: wild oat (wild oat; [7]) | herbicidal effect rating, H: barnyard grass (barnyard grass; [7]) | herbicidal effect rating, J: blackgrass (blackgrass; [7]) | herbicidal effect rating, B: Japanese bulrush (Japanese bulrush) | herbicidal effect rating, R: persian speedwell (persian speedwell; [7]) | Herbicidal effect on C: oval-leafed pondweed (grade 0-5) (oval-leafed pondweed) | herbicidal effect rating, G: green foxtail (green foxtail; 320 g/ha) | herbicidal effect rating, O: lambsquarters (lambsquarters [1]; 320 g/ha) | herbicidal effect rating, P: chickweed (chickweed [2]; 320 g/ha) | herbicidal effect rating, M: velvetleaf (velvetleaf [3]; 320 g/ha) | effect on windgrass (L) (windgrass; 320 g/ha) | effect on Italian ryegrass (K) (Italian ryegrass; 320 g/ha) | herbicidal effect rating, F: southern crabgrass (southern crabgrass; 320 g/ha) | effect on velvetleaf (M) (velvetleaf [4]; 320 g/ha) | herbicidal effect rating, I: wild oat (wild oat; 320 g/ha) | herbicidal effect rating, H: barnyard grass (barnyard grass; 320 g/ha) | also measured
CCCC(=O)Oc1c(C)nn(C)c(=O)c1-c1c(-c2ccc(OCC)cc2)sc2ccccc12 [1-014] | 1 (Herbicidal rate of 5% or more and less than 20%) | 2 (Herbicidal rate of 20% or more and less than 40%) | 4 (Herbicidal rate of 70% or more and less than 90%) | 0 (Herbicidal rate of 5% or less (almost no effect)) | 0 (Herbicidal rate of 5% or less (almost no effect)) | 2 (Herbicidal rate of 20% or more and less than 40%) | 0 (Herbicidal rate of 5% or less (almost no effect)) | 3 (Herbicidal rate of 40% or more and less than 70%) | 5 (Herbicidal rate of 90% or more (almost completely withered)) | 5 (Herbicidal rate of 90% or more (almost completely withered)) |  |  |  |  |  |  |  |  |  |  | herbicidal effect rating, M: velvetleaf (velvetleaf [3]; [7]): 0 (Herbicidal rate of 5% or less (almost no effect)); herbicidal effect grade, L: windgrass (windgrass; [8]): 0 (Herbicidal rate of 5% or less (almost no effect)); herbicidal effect grade, K: Italian ryegrass (Italian ryegrass; [8]): 3 (Herbicidal rate of 40% or more and less than 70%); herbicidal effect grade, N: redroot pigweed (redroot pigweed; [8]): 0 (Herbicidal rate of 5% or less (almost no effect)); herbicidal effect grade, M: velvetleaf (velvetleaf [4]; [8]): 4 (Herbicidal rate of 70% or more and less than 90%); herbicidal effect grade, P: chickweed (chickweed [5]; [8]): 5 (Herbicidal rate of 90% or more (almost completely withered)); herbicidal effect grade, O: lambsquarters (lambsquarters [6]; [8]): 2 (Herbicidal rate of 20% or more and less than 40%)
Cc1nn(C)c(=O)c(-c2c(-c3cnc4ccccc4c3)sc3ccccc23)c1O [1-108] | 0 (Herbicidal rate of 5% or less (almost no effect)) | 3 (Herbicidal rate of 40% or more and less than 70%) | 0 (Herbicidal rate of 5% or less (almost no effect)) | 0 (Herbicidal rate of 5% or less (almost no effect)) | 0 (Herbicidal rate of 5% or less (almost no effect)) | 0 (Herbicidal rate of 5% or less (almost no effect)) | 0 (Herbicidal rate of 5% or less (almost no effect)) | 2 (Herbicidal rate of 20% or more and less than 40%) | 0 (Herbicidal rate of 5% or less (almost no effect)) | 0 (Herbicidal rate of 5% or less (almost no effect)) |  |  |  |  |  |  |  |  |  |  | L: windgrass, herbicidal effect (windgrass; [9]): 0 (Herbicidal rate of 5% or less (almost no effect)); K: Italian ryegrass, herbicidal effect (Italian ryegrass; [9]): 0 (Herbicidal rate of 5% or less (almost no effect)); N: redroot pigweed, herbicidal effect (redroot pigweed; [9]): 0 (Herbicidal rate of 5% or less (almost no effect)); M: velvetleaf, herbicidal effect (velvetleaf [4]; [9]): 1 (Herbicidal rate of 5% or more and less than 20%); P: chickweed, herbicidal effect (chickweed [5]; [9]): 2 (Herbicidal rate of 20% or more and less than 40%); O: lambsquarters, herbicidal effect (lambsquarters [6]; [9]): 2 (Herbicidal rate of 20% or more and less than 40%)
CCCC(=O)Oc1c(C)nn(C)c(=O)c1-c1c(-c2ccc(OC(F)(F)F)cc2)sc2ccc(F)cc12 [2-046] |  |  |  |  |  |  |  | 3 (Herbicidal rate of 40% or more and less than 70%) |  | 3 (Herbicidal rate of 40% or more and less than 70%) | 4 (Herbicidal rate of 70% or more and less than 90%) | 5 (Herbicidal rate of 90% or more (almost completely withered)) | 5 (Herbicidal rate of 90% or more (almost completely withered)) | 3 (Herbicidal rate of 40% or more and less than 70%) | 0 (Herbicidal rate of 5% or less (almost no effect)) | 4 (Herbicidal rate of 70% or more and less than 90%) | 2 (Herbicidal rate of 20% or more and less than 40%) | 5 (Herbicidal rate of 90% or more (almost completely withered)) | 0 (Herbicidal rate of 5% or less (almost no effect)) | 3 (Herbicidal rate of 40% or more and less than 70%) | herbicidal effect rating, J: blackgrass (blackgrass; 320 g/ha): 0 (Herbicidal rate of 5% or less (almost no effect)); effect on lambsquarters (O) (lambsquarters [6]; 320 g/ha): 5 (Herbicidal rate of 90% or more (almost completely withered)); herbicidal effect rating, R: persian speedwell (persian speedwell; 320 g/ha): 5 (Herbicidal rate of 90% or more (almost completely withered))
Cc1nn(C)c(=O)c(-c2c(-c3ccc(OCCF)cc3)sc3ccc(F)cc23)c1O [2-047] |  |  |  |  |  |  |  | 3 (Herbicidal rate of 40% or more and less than 70%) |  | 2 (Herbicidal rate of 20% or more and less than 40%) | 5 (Herbicidal rate of 90% or more (almost completely withered)) | 5 (Herbicidal rate of 90% or more (almost completely withered)) | 4 (Herbicidal rate of 70% or more and less than 90%) | 5 (Herbicidal rate of 90% or more (almost completely withered)) | 4 (Herbicidal rate of 70% or more and less than 90%) | 4 (Herbicidal rate of 70% or more and less than 90%) | 5 (Herbicidal rate of 90% or more (almost completely withered)) | 5 (Herbicidal rate of 90% or more (almost completely withered)) | 2 (Herbicidal rate of 20% or more and less than 40%) | 5 (Herbicidal rate of 90% or more (almost completely withered)) | herbicidal effect rating, J: blackgrass (blackgrass; 320 g/ha): 0 (Herbicidal rate of 5% or less (almost no effect)); effect on lambsquarters (O) (lambsquarters [6]; 320 g/ha): 4 (Herbicidal rate of 70% or more and less than 90%); herbicidal effect rating, R: persian speedwell (persian speedwell; 320 g/ha): 5 (Herbicidal rate of 90% or more (almost completely withered))
CCCC(=O)Oc1c(C)nn(C)c(=O)c1-c1c(-c2ccc(SCC)cc2)sc2ccc(F)cc12 [2-245] |  |  |  |  |  |  |  | 3 (Herbicidal rate of 40% or more and less than 70%) |  | 3 (Herbicidal rate of 40% or more and less than 70%) |  |  |  |  |  |  |  |  |  |  | herbicidal effect on G: green foxtail (green foxtail; [7]): 5 (Herbicidal rate of 90% or more (almost completely withered)); herbicidal effect on O: lambsquarters (lambsquarters [1]; [7]): 4 (Herbicidal rate of 70% or more and less than 90%); herbicidal effect on P: chickweed (chickweed [2]; [7]): 4 (Herbicidal rate of 70% or more and less than 90%); herbicidal effect on M: velvetleaf (velvetleaf [3]; [7]): 2 (Herbicidal rate of 20% or more and less than 40%); herbicidal effect on K: Italian ryegrass (criteria 0-5) (Italian ryegrass; [10]): 5 (Herbicidal rate of 90% or more (almost completely withered)); herbicidal effect on N: redroot pigweed (criteria 0-5) (redroot pigweed; [10]): 5 (Herbicidal rate of 90% or more (almost completely withered)); herbicidal effect on F: southern crabgrass (southern crabgrass; [7]): 4 (Herbicidal rate of 70% or more and less than 90%); herbicidal effect on M: velvetleaf (criteria 0-5) (velvetleaf [4]; [10]): 5 (Herbicidal rate of 90% or more (almost completely withered)); herbicidal effect on P: chickweed (criteria 0-5) (chickweed [5]; [10]): 5 (Herbicidal rate of 90% or more (almost completely withered)); herbicidal effect on I: wild oat (wild oat; [7]): 2 (Herbicidal rate of 20% or more and less than 40%); herbicidal effect on H: barnyard grass (barnyard grass; [7]): 5 (Herbicidal rate of 90% or more (almost completely withered)); herbicidal effect on J: blackgrass (blackgrass; [7]): 3 (Herbicidal rate of 40% or more and less than 70%); herbicidal effect on O: lambsquarters (criteria 0-5) (lambsquarters [6]; [10]): 5 (Herbicidal rate of 90% or more (almost completely withered)); herbicidal effect on R: persian speedwell (persian speedwell; [7]): 5 (Herbicidal rate of 90% or more (almost completely withered))
